# Where two headings read alike, the source gives them in different places.
# What was measured:
# Assay type in all cases: in vivo
# [1] = test system: eastern black nightshade (Solanum ptycanthum); experiment: Test C pre/postemergence; details: Preemergence; for pest or weed control at 125 g/ha: 125 g ai/ha; for pest or weed control at 250 g/ha: 250 g ai/ha
# Summary of the method: (§1)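 Visual injury ratings, 0 (no effect) to 100 (complete control), made 12 to 14 days after treatment by comparison with untreated controls. Greenhouse plants received test chemical in a surfactant-containing non-phytotoxic solvent, either preemergence on planted seeds or postemergence at the 1- to 4-leaf stage.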
# [2] = test system: velvetleaf (Abutilon theophrasti); experiment: Test C pre/postemergence; details: for pest or weed control at 125 g/ha: 125 g ai/ha; for pest or weed control at 250 g/ha: 250 g ai/ha
# Summary of the method: as §1
# [3] = test system: yellow nutsedge (Cyperus esculentus); experiment: Test C pre/postemergence; details: for pest or weed control at 125 g/ha: 125 g ai/ha; for pest or weed control at 250 g/ha: 250 g ai/ha
# Summary of the method: as §1
# [4] = test system: bearded (brdd.) sprangletop (Leptochloa fusca ssp. fascicularis); experiment: Test E flooded paddy water application; details: Flood, 21 days, scale 0 to 100 (0 no effect, 100 complete control)
# Summary of the method: (§2)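 Greenhouse pots of Tama silt loam with weeds and rice at 2.0–2.5-leaf stage, flooded to 3 cm; compounds applied directly into paddy water, depth maintained. Visual rating versus untreated controls after 21 days, 0 (no effect) to 100 (complete control); 29.5/26.7 °C, 16-h photoperiod.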
# [5] = test system: ducksalad (Heteranthera limosa); experiment: Test E flooded paddy water application; details: Flood, 21 days, scale 0 to 100 (0 no effect, 100 complete control)
# Summary of the method: as §2
# [6] = test system: early watergrass (Echinochloa oryzoides); experiment: Test E flooded paddy water application; details: Flood, 21 days, scale 0 to 100 (0 no effect, 100 complete control)
# Summary of the method: as §2
# [7] = test system: junglerice (Echinochloa colona); experiment: Test E flooded paddy water application; details: Flood, 21 days, scale 0 to 100 (0 no effect, 100 complete control)
# Summary of the method: as §2
# [8] = test system: late watergrass (Echinochloa oryzicola); experiment: Test E flooded paddy water application; details: Flood, 21 days, scale 0 to 100 (0 no effect, 100 complete control)
# Summary of the method: as §2
# [9] = test system: smallflower umbrella sedge (Cyperus difformis); experiment: Test E flooded paddy water application; details: Flood, 21 days, scale 0 to 100 (0 no effect, 100 complete control)
# Summary of the method: as §2
# [10] = test system: transplanted rice seedlings (Oryza sativa cv. ‘Japonica-M202’); experiment: Test E flooded paddy water application; details: Flood, 21 days, scale 0 to 100 (0 no effect, 100 complete control)
# Summary of the method: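 Response scored visually on a 0–100 scale (100 = complete control) at 21 days against untreated pots. Treatment was into paddy water 3 cm deep over silt loam, with plants at the 2.0–2.5-leaf stage, grown under 16-h light at 29.5/26.7 °C day/night.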
# [11] = test system: water seeded rice seedlings (Oryza sativa cv. ‘Japonica-M202’); experiment: Test E flooded paddy water application; details: Flood, 21 days, scale 0 to 100 (0 no effect, 100 complete control)
# Summary of the method: as §2
# [12] = Solanum, pre-emergence, 31 g ai/ha, scale 0 to 100, 0 no effect, 100 complete control, read-out: Plant response rating, Nightshade
# [13] = Solanum, pre-emergence, 62 g ai/ha, scale 0 to 100, 0 no effect, 100 complete control, read-out: Plant response rating, Nightshade
# [14] = Solanum, pre-emergence, scale 0 to 100, read-out: Plant response rating, Nightshade
# [15] = Abutilon theophrasti, post-emergence, Postemergence, 31 g ai/ha, read-out: Plant response rating (scale of 0 to 100), Velvetleaf
# [16] = Abutilon theophrasti, post-emergence, Postemergence, 62 g ai/ha, scale 0 to 100 (0 no effect, 100 complete control), read-out: Velvetleaf plant response rating
# [17] = Abutilon theophrasti, post-emergence, Postemergence, scale 0 to 100 (0 no effect, 100 complete control), read-out: Velvetleaf plant response rating
# [18] = Abutilon theophrasti, pre-emergence, Preemergence, 31 g ai/ha, scale 0 to 100, 0 no effect, 100 complete control, read-out: Plant response rating, Velvetleaf
# [19] = Abutilon theophrasti, pre-emergence, Preemergence, 62 g ai/ha, scale 0 to 100, 0 no effect, 100 complete control, read-out: Plant response rating, Velvetleaf
# [20] = Abutilon theophrasti, pre-emergence, Preemergence, scale 0 to 100, read-out: Plant response rating, Velvetleaf
# [21] = Cyperus, post-emergence, Postemergence, 31 g ai/ha, read-out: Plant response rating (scale of 0 to 100), Nutsedge, Yellow
# [22] = Cyperus, post-emergence, Postemergence, 62 g ai/ha, scale 0 to 100 (0 no effect, 100 complete control), read-out: Nutsedge, Yellow plant response rating
# [23] = Cyperus, post-emergence, Postemergence, scale 0 to 100 (0 no effect, 100 complete control), read-out: Nutsedge, Yellow plant response rating
# [24] = Cyperus, pre-emergence, Preemergence, 31 g ai/ha, scale 0 to 100, 0 no effect, 100 complete control, read-out: Plant response rating, Nutsedge, Yellow
# [25] = Cyperus, pre-emergence, Preemergence, 62 g ai/ha, scale 0 to 100, 0 no effect, 100 complete control, read-out: Plant response rating, Nutsedge, Yellow
# [26] = Cyperus, pre-emergence, Preemergence, scale 0 to 100, read-out: Plant response rating, Nutsedge, Yellow
# [27] = Preemergence, 16 g ai/ha, scale 0 to 100, 0 no effect, 100 complete control
# [28] = Preemergence, 31 g ai/ha, scale 0 to 100, 0 no effect, 100 complete control
# [29] = Preemergence, 62 g ai/ha, scale 0 to 100, 0 no effect, 100 complete control
smiles,measurement,setting,value
"CCOC(=O)c1nc(-c2ccc(Cl)cc2)nc(N)c1Cl [Compound 64, ethyl 6-amino-5-chloro-2-(4-chlorophenyl)-4-pyrimidinecarboxylate]",pest or weed control at 31 g/ha,[1]; [12],5%
same,pest or weed control at 62 g/ha,[1]; [13],85%
same,pest or weed control at 125 g/ha,[1]; [14],85%
same,pest or weed control at 250 g/ha,[1]; [14],95%
same,pest or weed control at 31 g/ha,[2]; [15],80%
same,pest or weed control at 62 g/ha,[2]; [16],85%
same,pest or weed control at 125 g/ha,[2]; [17],90%
same,pest or weed control at 250 g/ha,"[2]; Abutilon theophrasti, post-emergence, Postemergence, scale 0 to 100, read-out: Plant response rating, Velvetleaf",95%
same,pest or weed control at 31 g/ha,[2]; [18],0%
same,pest or weed control at 62 g/ha,[2]; [19],0%
same,pest or weed control at 125 g/ha,[2]; [20],0%
same,pest or weed control at 250 g/ha,[2]; [20],0%
same,pest or weed control at 31 g/ha,[3]; [21],40%
same,pest or weed control at 62 g/ha,[3]; [22],50%
same,pest or weed control at 125 g/ha,[3]; [23],50%
same,pest or weed control at 250 g/ha,"[3]; Cyperus, post-emergence, Postemergence, scale 0 to 100, read-out: Plant response rating, Nutsedge, Yellow",50%
same,pest or weed control at 31 g/ha,[3]; [24],0%
same,pest or weed control at 62 g/ha,[3]; [25],0%
same,pest or weed control at 125 g/ha,[3]; [26],0%
same,pest or weed control at 250 g/ha,[3]; [26],10%
same,"Sprangletop, Brdd. plant response rating",[4]; 32 g ai/ha,0
same,"Sprangletop, Brdd. plant response rating",[4]; 64 g ai/ha,0
same,"Sprangletop, Brdd. plant response rating",[4]; 125 g ai/ha,0
same,"Sprangletop, Brdd. plant response rating",[4]; 250 g ai/ha,0
same,"Plant response rating, Sprangletop, Brdd.",[4]; 16 g ai/ha,0
same,Ducksalad plant response rating,[5]; 32 g ai/ha,100
same,Ducksalad plant response rating,[5]; 64 g ai/ha,100
same,Ducksalad plant response rating,[5]; 125 g ai/ha,100
same,Ducksalad plant response rating,[5]; 250 g ai/ha,100
same,"Plant response rating, Ducksalad",[5]; 16 g ai/ha,100
same,"Watergrass, Early plant response rating",[6]; 32 g ai/ha,0
same,"Watergrass, Early plant response rating",[6]; 64 g ai/ha,0
same,"Watergrass, Early plant response rating",[6]; 125 g ai/ha,0
same,"Watergrass, Early plant response rating",[6]; 250 g ai/ha,0
same,"Plant response rating, Watergrass, Early",[6]; 16 g ai/ha,0
same,Junglerice plant response rating,[7]; 32 g ai/ha,0
same,Junglerice plant response rating,[7]; 64 g ai/ha,0
same,Junglerice plant response rating,[7]; 125 g ai/ha,0
same,Junglerice plant response rating,[7]; 250 g ai/ha,0
same,"Plant response rating, Junglerice",[7]; 16 g ai/ha,0
same,"Watergrass, Late plant response rating",[8]; 32 g ai/ha,0
same,"Watergrass, Late plant response rating",[8]; 64 g ai/ha,0
same,"Watergrass, Late plant response rating",[8]; 125 g ai/ha,20
same,"Watergrass, Late plant response rating",[8]; 250 g ai/ha,20
same,"Plant response rating, Watergrass, Late",[8]; 16 g ai/ha,0
same,"Sedge, Umbrella plant response rating",[9]; 32 g ai/ha,80
same,"Sedge, Umbrella plant response rating",[9]; 64 g ai/ha,85
same,"Sedge, Umbrella plant response rating",[9]; 125 g ai/ha,100
same,"Sedge, Umbrella plant response rating",[9]; 250 g ai/ha,100
same,"Plant response rating, Sedge, Umbrella",[9]; 16 g ai/ha,65
same,"Rice, Transplanted plant response rating",[10]; 32 g ai/ha,0
same,"Rice, Transplanted plant response rating",[10]; 64 g ai/ha,0
same,"Rice, Transplanted plant response rating",[10]; 125 g ai/ha,10
same,"Rice, Transplanted plant response rating",[10]; 250 g ai/ha,10
same,"Plant response rating, Rice, Transplanted",[10]; 16 g ai/ha,0
same,"Rice, Water Seeded plant response rating",[11]; 32 g ai/ha,0
same,"Rice, Water Seeded plant response rating",[11]; 64 g ai/ha,0
same,"Rice, Water Seeded plant response rating",[11]; 125 g ai/ha,0
same,"Rice, Water Seeded plant response rating",[11]; 250 g ai/ha,0
same,"Plant response rating, Rice, Water Seeded",[11]; 16 g ai/ha,0
COC(=O)c1nc(C2CC2)nc(N)c1F [Compound 25],pest or weed control at 16 g/ha,"[1]; Solanum, pre-emergence, 16 g ai/ha, scale 0 to 100, 0 no effect, 100 complete control, read-out: Plant response rating, Nightshade",0%
same,pest or weed control at 31 g/ha,[1]; [12],0%
same,pest or weed control at 62 g/ha,[1]; [13],30%
same,pest or weed control at 125 g/ha,[1]; [14],75%
same,pest or weed control at 16 g/ha,"[2]; Abutilon theophrasti, post-emergence, Postemergence, 16 g ai/ha, read-out: Plant response rating (scale of 0 to 100), Velvetleaf",5%
same,pest or weed control at 31 g/ha,[2]; [15],20%
same,pest or weed control at 62 g/ha,[2]; [16],45%
same,pest or weed control at 125 g/ha,[2]; [17],45%
same,pest or weed control at 16 g/ha,"[2]; Abutilon theophrasti, pre-emergence, Preemergence, 16 g ai/ha, scale 0 to 100, 0 no effect, 100 complete control, read-out: Plant response rating, Velvetleaf",0%
same,pest or weed control at 31 g/ha,[2]; [18],0%
same,pest or weed control at 62 g/ha,[2]; [19],0%
same,pest or weed control at 125 g/ha,[2]; [20],40%
same,pest or weed control at 16 g/ha,"[3]; Cyperus, post-emergence, Postemergence, 16 g ai/ha, read-out: Plant response rating (scale of 0 to 100), Nutsedge, Yellow",0%
same,pest or weed control at 31 g/ha,[3]; [21],0%
same,pest or weed control at 62 g/ha,[3]; [22],0%
same,pest or weed control at 125 g/ha,[3]; [23],0%
same,pest or weed control at 16 g/ha,"[3]; Cyperus, pre-emergence, Preemergence, 16 g ai/ha, scale 0 to 100, 0 no effect, 100 complete control, read-out: Plant response rating, Nutsedge, Yellow",0%
same,pest or weed control at 31 g/ha,[3]; [24],0%
same,pest or weed control at 62 g/ha,[3]; [25],0%
same,pest or weed control at 125 g/ha,[3]; [26],0%
Nc1nc(C2CC2)nc(C=O)c1Br [Compound 26],pest or weed control at 62 g/ha,[1]; [13],10%
same,pest or weed control at 125 g/ha,[1]; [14],100%
same,pest or weed control at 250 g/ha,[1]; [14],100%
same,pest or weed control at 500 g/ha,"[1]; Solanum, pre-emergence, 500 g ai/ha, scale 0 to 100, read-out: Plant response rating, Nightshade",100%
same,pest or weed control at 62 g/ha,[2]; [19],0%
same,pest or weed control at 125 g/ha,[2]; [20],10%
same,pest or weed control at 250 g/ha,[2]; [20],90%
same,pest or weed control at 500 g/ha,"[2]; Abutilon theophrasti, pre-emergence, Preemergence, 500 g ai/ha, scale 0 to 100, read-out: Plant response rating, Velvetleaf",90%
same,pest or weed control at 62 g/ha,[3]; [25],0%
same,pest or weed control at 125 g/ha,[3]; [26],0%
same,pest or weed control at 250 g/ha,[3]; [26],0%
same,pest or weed control at 500 g/ha,"[3]; Cyperus, pre-emergence, Preemergence, 500 g ai/ha, scale 0 to 100, read-out: Plant response rating, Nutsedge, Yellow",0%
CCCOC(=O)c1nc(C2CC2)nc(N)c1Cl [Compound 75],"Plant response rating, Nightshade","[1]; 16 g ai/ha, scale 0 to 100, 0 no effect, 100 complete control",0
same,"Plant response rating, Nightshade","[1]; 31 g ai/ha, scale 0 to 100, 0 no effect, 100 complete control",50
same,"Plant response rating, Nightshade","[1]; 62 g ai/ha, scale 0 to 100, 0 no effect, 100 complete control",70
same,"Plant response rating, Nightshade","[1]; scale 0 to 100, 0 no effect, 100 complete control",100
same,"Plant response rating, Velvetleaf",[2]; [27],5
same,"Plant response rating, Velvetleaf",[2]; [28],60
same,"Plant response rating, Velvetleaf",[2]; [29],85
same,"Plant response rating, Nutsedge, Yellow",[3]; [27],0
same,"Plant response rating, Nutsedge, Yellow",[3]; [28],0
same,"Plant response rating, Nutsedge, Yellow",[3]; [29],0

# Reference: patent publication US8802597B2, “Herbicidal pyrimidines” (E I du Pont de Nemours and Company, priority 2003, dated 2014)
